Like-named read-outs stand apart in the source and are kept apart here.

Series [1] is described as follows: Caco-2 cells monolayer absorption and bidirectional transport experiment. The format is in vitro ADME, human. The following applies: human; for Papp A→B at 2 h, 2 µM: read-out: Mean Papp AP to BL; for Papp B→A at 2 h, 2 µM: read-out: Mean Papp BL to AP; for recovery at 2 h: direction not specified, read-out: total recovery rate of control drugs. How it is done:
(§1) The samples included three control drugs (fenoterol, propranolol, and digoxin) and 2,5-BHPA. […] For transfer in the AP→BL direction, 0.075 mL drug solution was added to the AP side as the supply pool, and 0.25 mL HBSS solution was added to the BL side as the receiving pool. In the BL→AP direction, 0.25 mL compound solution was added to the BL side as the supply pool, and 0.075 mL HBSS solution was added to the AP side as the receiving pool. The transwell plate was then cultured in an incubator at 37 °C for 2 h. Samples on the AP side and BL side were collected, respectively. Then, acetonitrile containing an internal label was added to each upper chamber to lyse transport membranes. The total recovery was calculated by collecting the amount of lead compound absorbed on the membrane surface or accumulated in the cell. Finally, the concentration of each sample was calculated as the ratio of the peak area between the compound and the inner target through mass spectrum analysis (API 4000).
(§2) Papp = (dCr/dt) × Vr/(A × C0)(2) where dCr/dt is the cumulative compound concentration per unit of time (µM/s); Vr is the volume in the receiving hole (mL); A is the transport membrane area; and C0 is the compound initiation concentration (µM).
In general terms: Passage across Caco-2 layers is used to estimate intestinal permeability.

For another series, the system named is Caco-2 cells monolayer. Described as above. The format is in vitro ADME, human. How it is done: as §1, §2
Where [2] appears, read: Caco-2, 2 µM, 0.1% bull serum albumin added.
[3] abbreviates: 2 µM, 0.1% bull serum albumin added.

Procedure for Caco-2 cell model: Caco-2 cells were cultured in a CO-150 INNOVA CO^2 incubator with DEME (Dulbecco’s modified eagle) medium, including 10% fetal calf serum, 1% non-essential amino acid, and penicillin (streptomycin dual) resistance solution. The cells were cultured at constant temperature in a closed incubator with the following conditions: 37 °C, 5% CO^2, and 95% relative humidity. When the cell growth reached the fusion, 0.05% trypsin and EDTA were added and digested at 37 °C for 5 min. The cells were inoculated on a 96-well transwell culture plate with an inoculation concentration of 1 × 10^5/cm^2 for the cell transport experiment. After inoculation, the solution was changed every 4 to 6 days, and the culture was observed by electron microscope at 21 to 28 days [6]. The TEER value was detected by a Millicell-ERS transmembrane resistance meter as the integrity indicator to judge the monolayer model of Caco-2 cells. TEER = (Rt − R0) × A (Ω cm^2)(1) where Rt is the resistance value of Cell pore; R0 is the resistance value of blank; and A is the compartment effective membrane area

What is called efflux ratio is a quotient of directional permeabilities that is used to spot active efflux. As for `C[C@H]1O[C@@H](O[C@H]2[C@@H](O)C[C@H](O[C@H]3[C@@H](O)C[C@H](O[C@H]4CC[C@@]5(C)[C@H](CC[C@@H]6[C@@H]5C[C@@H](O)[C@]5(C)[C@@H](C7=CC(=O)OC7)CC[C@]65O)C4)O[C@@H]3C)O[C@@H]2C)C[C@H](O)[C@@H]1O` [Digoxin, digoxin, reference compound], in series [1] (setting [2]), the efflux ratio at 2 h, 2 µM turned out to be 485; the Papp A→B at 2 h, 2 µM amounted to 0.023 ± 0.001 ×10⁻⁶ cm/s; the Papp B→A at 2 h, 2 µM came to 10.4 ± 0.911 ×10⁻⁶ cm/s. Moreover, the efflux ratio at 2 h, 2 µM in series [1] (Caco-2, 2 μM, no BSA) was found to be 260. In series [1] (Caco-2, 2 μM, no BSA, 2 h), the Papp A→B at 2 h, 2 µM is 0.033 ± 0.003 ×10⁻⁶ cm/s and the Papp B→A at 2 h, 2 µM was 9.05 ± 0.62 ×10⁻⁶ cm/s. The recovery at 2 h in series [1] (Caco-2, text summary, no BSA) was over 83%. In addition, in the series on Caco-2 cells monolayer (setting [3]), the “Recoveries AP to BL” value was determined as 84.14 ± 3.13%, the “Recoveries BL to AP” value is 93.35 ± 3.56%, the “Total Recoveries AP to BL” value was determined as 85.37 ± 3.52% and the “Total Recoveries BL to AP” value came out at 93.43 ± 4.63%. In the series on Caco-2 cells monolayer (2 μM, no BSA), the “Recoveries AP to BL” value is 83.66 ± 3.14%, the “Recoveries BL to AP” value is 82.87 ± 4.38%, the “Total Recoveries AP to BL” value came out at 86.44 ± 3.51% and the “Total Recoveries BL to AP” value was found to be 83.31 ± 2.40%.

Regarding `CC(Cc1ccc(O)cc1)NCC(O)c1cc(O)cc(O)c1` (centres unmarked) [Fenoterol, fenoterol, reference compound], the Papp A→B at 2 h, 2 µM worked out at 0.091 ± 0.012 ×10⁻⁶ cm/s in series [1] (setting [2]) and 0.055 ± 0.008 ×10⁻⁶ cm/s in series [1] (Caco-2, 2 μM, no BSA, 2 h). The recovery at 2 h in series [1] (Caco-2, no BSA) is over 83%. For the same molecule, the “Recoveries AP to BL” value with Caco-2 cells monolayer (setting [3]) came to 94.38 ± 5.14%; with Caco-2 cells monolayer (2 μM, no BSA), 87.67 ± 1.24%. In addition, the “Total Recoveries AP to BL” value is 96.16 ± 6.72% with Caco-2 cells monolayer (setting [3]) and 90.92 ± 4.23% with Caco-2 cells monolayer (2 μM, no BSA).

Consider `CC(C)NCC(O)COc1cccc2ccccc12` (centres unmarked) [Propranolol, propranolol, reference compound], for which, in the series on Caco-2 cells monolayer (Caco-2), the “total recovery rate AP→BL” value was found to be 100% and the “total recovery rate of control drugs” value is given as “more than 83%”.

In the case of `NNC(=O)NN1C(=O)c2cc(S(=O)(=O)[O-])cc3c(N)c(S(=O)(=O)[O-])cc(c23)C1=O.[Li+].[Li+]` [fluorescence yellow], in the series on Caco-2 cell model, the “Papp of fluorescence yellow” value is on record as 0.15 ± 0.027 × 10^−6 cm·s^−1 and the transmittance was found to be 0.04 ± 0.005%.

These data come from publication PMC6950567, “Evaluation of Marine Diindolinonepyrane in Vitro and in Vivo: Permeability Characterization in Caco-2 Cells Monolayer and Pharmacokinetic Properties in Beagle Dogs” (Marine Drugs, 2019).
